# Earlier results in US20250339338A1, “BLOOD STORAGE CONTAINER CONTAINING AQUEOUS COMPOSITION FOR THE STORAGE OF RED BLOOD CELLS” (Hemerus Medical, LLC, priority 2013, published 2025).
# Tested on: humans
# Conditions: in vivo
smiles,measurement,value
"CCCCC(CC)COC(=O)c1ccccc1C(=O)OCC(CC)CCCC (stereo not shown) [DEHP, di-ethylhexyl phthalate]",adverse health effects found in studies in humans,"adverse health effects such as respiratory distress, choleostasis, and histological abnormalities of the liver"
